This note sets out measurements from patent US12251373B2, “Compounds and methods of treating retinal degeneration” (CASE WESTERN RESERVE UNIVERSITY, priority 2017, dated 2025).

Holding throughout (assay type): cell-based
One assay deals with T1, mouse P23H opsin (Mus musculus, UniProt P15409, P23H).
T1 construct: expressed in transfected cells
Nature of the assay: Immunostain and image-based high-content analysis of P23H mutant opsin in NIH3T3 cells. The note with it: ratio of P23H rod opsin fluorescence on plasma membrane to whole cell; for EC50: read-out: Immunostaining HCS MEM-Total ratio EC50. The text has this: Three NIH3T3 stable cell lines, NIH3T3-(WT-opsin/GFP), NIH3T3-(P23H-opsin/GFP), and NIH3T3-(GFP) were previously generated which stably express mouse WT opsin and GFP; P23H opsin and GFP; and only GFP, respectively. GFP is expressed separately from opsin in these cell lines. NIH3T3 cells were from ATCC. DNA constructs for generating these stable cell lines were confirmed by Sanger sequencing. Expression of GFP was confirmed by green fluorescence imaging, and expression of P23H and WT opsin were confirmed by immunoblots.
To characterize the effect of active compounds on the localization of P23H mutant opsin in mammalian cells, an image-based assay was used with cells immunostained for WT or P23H mutant opsin protein. Briefly, NIH3T3-(P23H-opsin/GFP) or NIH3T3-(WT-opsin/GFP) cells were seeded at 5,000 cells per well in a 384-well cell-carrier plate (PerkinElmer) and incubated at 37° C. with 5% CO2 for 2 h. Cells were treated with compounds as described for the β-Gal fragment complementation assay and incubated in assay medium for 24 h. The assay medium then was aspirated, and cells were fixed with 4% paraformaldehyde at 20 μL per well for 20 min at RT. Cells were immunostained in one of two ways: cell membranes were either permeabilized with 0.1% Triton X-100 for 15 min or left intact and then were incubated with 10% goat serum (Life Technologies). To detect opsin on the cell plasma membrane only, intact cells were immunostained with 20 μL per well of 20 μg mL^−1 B6-30 anti-rhodopsin antibody that recognizes the N-terminal epitope on the extracellular side of rhodopsin. To detect total opsin, cells were permeabilized with Triton X-100 and immunostained with 50 μg mL^−1 1D4 anti-rhodopsin antibody specific for the C-terminal epitope on the intracellular side of rhodopsin. Opsin immunostaining was visualized by incubating cells with 5 μg mL^−1 Cy3-conjugated goat anti-mouse IgG antibody. Three washes with phosphate-buffered saline (PBS: 10 mM Na2HPO4, 1.8 mM KH2PO4, pH 7.4, 137 mM NaCl, and 2.7 mM KCl) were performed between each step of incubation with antibody. In the last wash with PBS, DAPI was added to each well at 300 nM. Fluorescence images were obtained with the Operetta High Content Imaging System (PerkinElmer) using a 20× long objective. Five fields were taken of each well for cell images using three channels for fluorescence: GFP (100 ms), Cy3 (300 ms), and DAPI (50 ms). Images were analyzed with Acapella software from the Columbus data storage and analysis system (PerkinElmer). For cells immunostained with opsin on the non-permeabilized cell membrane only, an average of total fluorescence intensity of Cy3 per cell was used to quantify opsin in each well of the 384-well plate. For cells immunostained with opsin in permeabilized whole cells, an average ratio of Cy3 intensity on the cell plasma membrane (PM) to that of the entire cell (opsin ratio PM-to-total) was calculated for each well of a 384-well plate to quantify opsin transport to the plasma membrane. The plasma membrane was defined within ±5% of the cell border.

The next assay deals with T2, P23H opsin (Mus musculus, UniProt P15409, P23H).
T2 construct: expressed in transfected cells
Nature of the assay: Immunoblot of P23H opsin glycosylation in NIH3T3 cells. To be noted: P23H opsin. On the set-up: key to Improved glycosylation: n = no; y = yes. On the procedure:
NIH3T3-(P23H-opsin/GFP) or NIH3T3-(WT-opsin/GFP) cells were seeded in a 48-well plate (Corning Costar) at 3.2×10^5 cells per well and incubated at 37° C. with 5% CO2 for 2 h. One hundred-μL of assay medium containing a compound at 5× its final concentration was added to each well. The plate was gently shaken for 5 s before further incubation at 37° C. with 5% CO2 for 24 h. The assay medium then was aspirated, and cells were lysed with 100 μL per well PBS containing 0.1% Triton X-100 and complete protease inhibitor cocktail (Roche, Basel, Switzerland) followed by sonication for 3 s. Protein concentrations were determined with the Bradford assay. For PNGase F catalyzed deglycosylation, 3 μL of PNGase F (1,500 U, NEB) was added to the cell lysate and the mixture was incubated at room temperature for 1 h before immunoblotting. For NIH3T3-(P23H-opsin/GFP) cells, 15 μg of total protein were loaded per well onto an SDS-polyacrylamide gel; whereas for NIH3T3-(WT-opsin/GFP) cells, 10 μg of total protein was loaded per well. Opsin protein was immunostained with 0.2 μg mL^−1 horseradish peroxidase-conjugated 1D4 anti-rhodopsin antibody. Band intensities were measured with ImageJ software (http://imagej.nih.gov/ij/; National the Institutes of Health, Bethesda, MD, USA) and normalized to a glyceraldehyde 3-phosphate dehydrogenase (GAPDH) loading control.

The target of another assay is mouse P23H opsin mutant (Mus musculus, UniProt P15409, P23H). Nature of the assay: β-Gal fragment complementation assay: rescue of P23H opsin transport from ER to plasma membrane, U2OS(PLC-EA/P23H-PK) cells. To be noted: for Emax: U2OS, Table 1; for EC50: read-out: β-Gal fragment complementation assay Activity score (%) EC50. The text has this: U2OS(PLC-EA/P23H-PK) cells. A U2OS stable cell line was generated by DiscoveRx, Inc. (Fremont, CA, USA) for the β-Gal fragment complementation assay used in the small molecule HTS for rescue of P23H opsin transport. U2OS cells that continually express P23H-PK and PLC-EA fusion proteins were generated. Briefly, this small subunit of […] (PK fragment) was fused to the C-terminal of the mouse P23H opsin mutant, while the large EA fragment, a subunit of […], was fused with PLC, a plasma membrane anchored peptide. Both constructs were subcloned by DicoveRx, Inc. and transferred into U2OS cells by viral infections. Positive clones were selected under treatment with hygromycin and geneticin.
Briefly, U2OS(PLC-EA/P23H-PK) cells were suspended in assay medium at 3×10^5 cells mL^−1. The cell suspension was dispensed into 384-well plates (Greiner Bio-one, Monroe, NC, USA) at 20 μL per well, with a Multidrop dispenser (Thermo Scientific, Waltham, MA, USA). Plates with cells then were centrifuged at 200 g for 15 s before incubation at 37° C. with 5% CO2. Plates were removed 24 h later for treatment with tested compounds. A total of 248 plates containing 79,080 compounds from three small molecule libraries were paired with an equal number of assay plates with cultured cells. Due to a limited capacity, these plates were assayed in seven batches. An average of 56.3 nL of 10 mM compound in DMSO was dispensed into each well from column 3 to 22 of paired assay plates using a 50 nL 384-pintool system, such that the final concentration of each compound was 22.52 μM on average. […] Each assay plate was shaken for 5 s before further incubation at 37° C. with 5% CO2. […] Assay plates were incubated in the dark for 60-90 min, and luminescence was read from each assay plate with an Envision microplate reader (PerkinElmer) during a 0.1 s per well integration time. The mean and s.d. of readouts in column 2 of each plate were calculated as Mean0% and SD0%, whereas the average and s.d. of readouts in column 23 were calculated as Mean100% and SD100%. Equation 1: Activity scores (%)=(RLUcp−Mean0%)/(Mean100%−Mean0%)×100%, where RLUcp is the relative luminescence unit derived for cells treated with a compound. Equation 2: Z′-factor=1-3×(SD0%+SD100%)/(Mean100%−Mean0%); Equation 3: signal-to-background (S/B) ratio=Mean100%/Mean0%. Activities of all tested compounds were registered with their compound ID by GeneData Screener (Genedata, Basel, Switzerland) and Pipeline Pilot software (Accelrys, San Diego, CA, USA). Hits, cherry-picked from a separate stock dose-dependent activity test, were selected with an activity score cutoff at 20%. Activity of each hit was tested again with the β-Gal fragment complementation assay in a 10-dose series with each dose tested in triplicate. The 10 doses tested were 80, 40, 20, 10, 5, 2.5, 1.25, 0.625, 0.313, and 0.156 μM. Dose-dependent curves of each hit compound were fitted with GeneData and Origin software.
Detailed synthetic steps are described in FIG. 18. […] YC-002-YC-021 were purchased from commercial vendors including Enamine LLC (Monmouth Jct., NJ, USA), Matrix Scientific (Columbia, SC, USA) and Tokyo Chemical Industry Co., Ltd. (Portland, OR, USA). […] Activities of YC compounds were tested with the β-Gal fragment complementation assay, as described in a prior section. All YC compounds were tested at 10 doses, each in triplicate: 80, 40, 20, 10, 5, 2.5, 1.25, 0.625, 0.313, and 0.156 μM.

[1] abbreviates: experimental maximum, read-out: β-Gal fragment complementation assay Activity score (%) Max (Exp).
[2] abbreviates: fitted maximum, read-out: β-Gal fragment complementation assay Activity score (%) Max (fit).

SMILES strings stand for the structures. Like-named read-outs stand apart in the source and are kept apart here.

For the compound `O=C(NCC#CCN1CCCC1)c1cc(-c2ccccc2)on1` [Compound F6244-1415], on mouse P23H opsin, the “Immunostaining HCS MEM-Total ratio Max (fit)” value turned out to be 0.063. For the same compound, the EC50 on mouse P23H opsin worked out at 4.2 µM; at mouse P23H opsin mutant it was 8.61 µM. In addition, on P23H opsin, the Improved glycosylation result was “n”. For the same compound, the Emax amounted to 24.8% on mouse P23H opsin mutant (setting [1]) and 25.2% on mouse P23H opsin mutant (setting [2]).
For `O=C(NCCCOc1cccc2cccnc12)c1cc(-c2ccccc2)on1` [Compound F5875-0200], the “Immunostaining HCS MEM-Total ratio Max (fit)” value on mouse P23H opsin was 0.041. Further, the EC50 at mouse P23H opsin came to 6.2 µM; at mouse P23H opsin mutant it was 25 µM. Also, at P23H opsin, the Improved glycosylation result is reported as “n”. The Emax on mouse P23H opsin mutant (setting [1]) is 31.8%; on mouse P23H opsin mutant (setting [2]), 51.6%.
